Test results taken from article PMC10975765 (Pharmaceuticals, 2024).
Where two headings read alike, the source gives them in different places.

Experiments:
[1] = system: flies expressing human APP and BACE-1 in the developing eyes; assay: Drosophila eye morphology by scanning electron microscopy; assay type: in vivo, Drosophila melanogaster; conditions: AD flies, 21 days
Description: All fly stocks were maintained in a standard medium at 25 °C, 60% humidity, and a 12 h/12 h light–dark cycle in constant climate chambers with ICH-compliant light source (BINDER GmbH, Tuttlingen, Germany). […] Flies were cultivated for 21 days at 28 °C, with food changes every three days.
The external compound eyes were then inspected using JSM-IT510 InTouchScope™ SEM Series (JEOL, Peabody, MA, USA) in a vacuum mode.

[2] = cited from earlier work
[3] = system: Salmonella typhimurium TA1537; assay: Bacterial reverse mutation test (Ames test), TA1537
Description: (§1) In brief, Salmonella typhimurium (TA98, TA100, TA102, TA1535, and TA1537) was cultured in a nutrient broth (12 mL) at 37 °C. […] Later, the mixture was added to 2 mL of top agar containing 0.5 mM L-histidine and 0.5 mM D-biotin. The mixture was agitated and poured onto the minimal agar plate and incubated at 37 °C for 48 h. All experiments were conducted in triplicate. The number of revertant colonies per plate was counted. The MR was calculated from the average of the revertant number divided by the average of negative control revertant number.

[4] = system: Salmonella typhimurium TA100
Description: as §1

[5] = system: Salmonella typhimurium TA1535
Description: as §1

[6] = system: Salmonella typhimurium TA98; assay: Bacterial reverse mutation test (Ames test), TA98; conditions: TA98, +S9, positive control
Description: as §1

[7] = system: Salmonella typhimurium TA102; conditions: TA102, +S9, positive control
Description: as §1

[8] = biological target: acetylcholinesterase (AChE) (Electrophorus electricus, UniProt O42275); conditions: in combination with donepezil
Description: AChE and BChE inhibition were determined using well-established protocols without modifications. For BACE-1 inhibition, we complied with the manufacturer’s instructions (BACE-1 FRET assay kit, Sigma-Aldrich, St. Louis, MO, USA).
The half-maximal inhibitory concentration (IC50) against AChE, BChE and BACE-1 were calculated using GraphPad Prism (version 9.0, La Jolla, CA, USA) as follows:(2) Y=Bottom+Top−Bottom/1+10^((logIC50−X) × (HillSlope)), where Y is response, decreasing as X increases, X is log of dose or concentration, Top and Bottom are plateaus in same units as Y, and Hillslope is data slope factor or hill slope, unitless.

β-secretase (BACE-1) = biological target: T1, β-secretase (BACE-1) (Homo sapiens, UniProt P56817); assay: biochemical; assay type: biochemical; conditions: for BACE-1 inhibition (%): Figure 4
T1 construct: purchased Sigma-Aldrich

[9] = biological target: butyrylcholinesterase (BChE) (Equus caballus, UniProt P81908); conditions: for interaction with donepezil to inhibit BChE: in combination with donepezil; for BChE inhibition (%): Figure 3
[10] = system: transgenic Drosophila model for AD; conditions: cited from earlier work
AChE = conditions: cited from earlier work; for IC50: read-out: AChE IC50
[11] = system: S. typhimurium TA98 and TA100; conditions: TA98 and TA100, with/without S9 extract; cited from earlier work
[12] = rat, in vivo; cited from earlier work
[13] = system: isolated rat liver nuclei; conditions: cited from earlier work
BACE-1 = conditions: cited from earlier work
PC12 cells = conditions: Aβ25–35-induced oxidative stress in PC12 cells; cited from earlier work
[14] = system: V79 Chinese hamster lung cells; conditions: cited from earlier work
human lymphocytes = conditions: cited from earlier work
[15] = sample alone at IC20 (donepezil 0)
[16] = sample alone at IC30 (donepezil 0)

Sequence of butyrylcholinesterase (BChE) (P81908 whole entry): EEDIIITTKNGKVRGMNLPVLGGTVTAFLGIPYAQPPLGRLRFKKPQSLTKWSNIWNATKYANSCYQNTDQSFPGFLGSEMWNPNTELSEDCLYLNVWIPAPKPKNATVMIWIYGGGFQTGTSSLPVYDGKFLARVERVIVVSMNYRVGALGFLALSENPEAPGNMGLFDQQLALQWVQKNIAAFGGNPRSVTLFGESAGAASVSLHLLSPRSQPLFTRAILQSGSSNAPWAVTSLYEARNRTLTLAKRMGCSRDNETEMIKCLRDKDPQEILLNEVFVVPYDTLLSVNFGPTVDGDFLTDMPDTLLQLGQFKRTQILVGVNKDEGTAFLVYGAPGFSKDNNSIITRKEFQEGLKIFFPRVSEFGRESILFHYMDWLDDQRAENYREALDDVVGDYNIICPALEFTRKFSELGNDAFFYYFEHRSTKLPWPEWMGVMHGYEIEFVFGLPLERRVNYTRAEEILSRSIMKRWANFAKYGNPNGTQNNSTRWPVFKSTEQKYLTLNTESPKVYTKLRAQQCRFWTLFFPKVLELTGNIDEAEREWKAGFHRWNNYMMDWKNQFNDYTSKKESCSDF
T1 sequence (P56817 46-501): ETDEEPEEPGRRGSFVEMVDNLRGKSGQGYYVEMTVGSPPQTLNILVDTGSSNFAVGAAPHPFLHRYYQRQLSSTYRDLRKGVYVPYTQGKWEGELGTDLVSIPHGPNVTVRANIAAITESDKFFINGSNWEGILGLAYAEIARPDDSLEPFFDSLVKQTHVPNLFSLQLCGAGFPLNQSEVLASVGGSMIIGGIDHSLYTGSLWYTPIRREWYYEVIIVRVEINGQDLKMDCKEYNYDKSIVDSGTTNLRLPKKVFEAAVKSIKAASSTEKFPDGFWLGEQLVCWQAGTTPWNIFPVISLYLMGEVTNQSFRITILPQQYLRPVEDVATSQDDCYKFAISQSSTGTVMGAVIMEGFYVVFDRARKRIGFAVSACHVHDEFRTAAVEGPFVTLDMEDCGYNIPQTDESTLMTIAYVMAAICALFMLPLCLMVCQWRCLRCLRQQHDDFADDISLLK
Sequence of acetylcholinesterase (AChE) (O42275 24-633): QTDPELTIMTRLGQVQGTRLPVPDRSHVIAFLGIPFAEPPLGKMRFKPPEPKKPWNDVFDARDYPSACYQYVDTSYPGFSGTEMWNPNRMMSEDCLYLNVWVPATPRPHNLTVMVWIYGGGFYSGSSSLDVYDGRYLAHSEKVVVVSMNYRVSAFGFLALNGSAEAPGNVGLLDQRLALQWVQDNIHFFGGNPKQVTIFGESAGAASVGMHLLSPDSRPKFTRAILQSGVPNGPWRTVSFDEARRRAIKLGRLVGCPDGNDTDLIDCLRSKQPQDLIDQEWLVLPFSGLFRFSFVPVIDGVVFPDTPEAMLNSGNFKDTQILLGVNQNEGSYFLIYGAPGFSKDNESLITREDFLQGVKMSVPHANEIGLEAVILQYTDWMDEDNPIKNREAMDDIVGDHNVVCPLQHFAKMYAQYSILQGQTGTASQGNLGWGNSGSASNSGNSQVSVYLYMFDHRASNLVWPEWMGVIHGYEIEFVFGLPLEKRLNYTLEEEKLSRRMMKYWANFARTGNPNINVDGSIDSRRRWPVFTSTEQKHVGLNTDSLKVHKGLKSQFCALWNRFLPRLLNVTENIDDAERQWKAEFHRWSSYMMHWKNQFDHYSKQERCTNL

Structure (SMILES): COc1cc2c(cc1OC)C(=O)C(CC1CCN(Cc3ccccc3)CC1)C2 (stereo not shown) [Donepezil, donepezil]
- eye morphology (retina degeneration, ommatidia and bristles) ([1]; donepezil 2.5 µM): did not reverse retina degeneration
- eye morphology (retina degeneration, ommatidia and bristles) ([1]; donepezil 5 µM): did not reverse retina degeneration
- eye morphology (retina degeneration, ommatidia and bristles) ([1]; donepezil 10 µM): eye phenotypes roughly similar to the negative control

Structure (SMILES): O=C(/C=C/c1ccc(O)c(O)c1)O[C@H](Cc1ccc(O)c(O)c1)C(=O)O [rosmarinic acid]
- crossing of the BBB [2]: reported to cross the BBB

Structure (SMILES): Nc1c2ccccc2nc2ccccc12 [9-AA, 9-aminoacridine]
- MR (mutagenicity ratio) ([3]; TA1537, −S9, positive control): 86.67
- MR class ([3]; TA1537, −S9, positive control): (+) ((+): indicates the mutagenicity ratio (MR) is ≥2)
- Revertant Colonies ([3]; TA1537, −S9, positive control): 780.00 ± 24.11

Structure (SMILES): [N-]=[N+]=[N-].[Na+] [NaN3, sodium azide]
- MR (mutagenicity ratio) ([4]; TA100, −S9, positive control): 17.14
- MR class ([4]; TA100, −S9, positive control): (+) ((+): indicates the mutagenicity ratio (MR) is ≥2)
- Revertant Colonies ([4]; TA100, −S9, positive control): 1145.33 ± 52.03
- MR (mutagenicity ratio) ([5]; TA1535, −S9, positive control): 18.90
- MR class ([5]; TA1535, −S9, positive control): (+) ((+): indicates the mutagenicity ratio (MR) is ≥2)
- Revertant Colonies ([5]; TA1535, −S9, positive control): 214.17 ± 9.51

Structure (SMILES): Nc1ccc2cc3ccccc3cc2c1 [2-AA, 2-aminoanthracen]
- MR (mutagenicity ratio) [6]: 14.15
- MR class [6]: (+) ((+): indicates the mutagenicity ratio (MR) is ≥2)
- Revertant Colonies [6]: 1396.00 ± 48.94
- MR (mutagenicity ratio) ([4]; TA100, +S9, positive control): 10.04
- MR class ([4]; TA100, +S9, positive control): (+) ((+): indicates the mutagenicity ratio (MR) is ≥2)
- Revertant Colonies ([4]; TA100, +S9, positive control): 876.67 ± 34.21
- MR class [7]: (+) ((+): indicates the mutagenicity ratio (MR) is ≥2)
- Revertant Colonies [7]: 960.67 ± 29.07
- MR (mutagenicity ratio) ([5]; TA1535, +S9, positive control): 33.32
- MR class ([5]; TA1535, +S9, positive control): (+) ((+): indicates the mutagenicity ratio (MR) is ≥2)
- Revertant Colonies ([5]; TA1535, +S9, positive control): 349.83 ± 18.89
- MR (mutagenicity ratio) ([3]; TA1537, +S9, positive control): 20.71
- MR class ([3]; TA1537, +S9, positive control): (+) ((+): indicates the mutagenicity ratio (MR) is ≥2)
- Revertant Colonies ([3]; TA1537, +S9, positive control): 203.67 ± 5.56

Structure (SMILES): O=c1c(O)c(-c2ccc(O)cc2)oc2cc(O)cc(O)c12 [Kaempferol, kaempferol]
- interaction with donepezil to inhibit AChE [8]: slightly antagonized
- interaction with donepezil on BACE-1 (β-secretase (BACE-1); in combination with donepezil): slightly antagonistically
- IC50 (β-secretase (BACE-1); read-out: Half-Maximal Inhibitory Concentration (IC50) BACE-1 (converted)): 299 µM
- BACE-1 inhibition (%) (β-secretase (BACE-1); [15]): 16%
- BACE-1 inhibition (%) (β-secretase (BACE-1); [16]): 29%
- interaction with donepezil to inhibit BChE [9]: slight synergism
- BChE inhibition (%) [9, 15]: 22%
- BChE inhibition (%) [9, 16]: 29%
- memory loss, climbing ability and AChE activity [10]: delayed memory loss by maintaining climbing ability and reducing AChE activity
- mode of AChE inhibition (AChE): reversible mixed mode
- IC50 (AChE): 12.4 µM
- genotoxicity in S. typhimurium [11]: genotoxicity exclusively when the S9 extract was present
- tumor induction [12]: did not significantly induce tumors
- nuclear DNA damages and lipid peroxidation [13]: induced nuclear DNA damages and lipid peroxidation

Structure (SMILES): O=c1c(O)c(-c2ccc(O)c(O)c2)oc2cc(O)cc(O)c12 [Quercetin, quercetin]
- interaction with donepezil to inhibit AChE [8]: slightly antagonized
- BACE-1 inhibition (%) (β-secretase (BACE-1); [15]): 22%
- BACE-1 inhibition (%) (β-secretase (BACE-1); [16]): 33%
- interaction with donepezil to inhibit BChE [9]: slight synergism
- BChE inhibition (%) [9, 15]: 20%
- BChE inhibition (%) [9, 16]: 32%
- neuroprotective effects (PC12 cells): demonstrated neuroprotective effects
- genotoxicity in S. typhimurium [11]: genotoxicity in the bacterial strains both with and without the S9 extract
- tumor induction [12]: did not significantly induce tumors
- micronuclei induction [14]: induced micronuclei
- micronuclei induction (human lymphocytes): induced micronuclei
